One compound from patent US20210132079A1, “ANTIBODY” (UCB Biopharma SRL, priority 2015, published 2021) can be followed below.

One test deals with T1, soluble form of CD40L (Homo sapiens, UniProt P29965).
T1 sequence (P29965 113-261 limits assumed): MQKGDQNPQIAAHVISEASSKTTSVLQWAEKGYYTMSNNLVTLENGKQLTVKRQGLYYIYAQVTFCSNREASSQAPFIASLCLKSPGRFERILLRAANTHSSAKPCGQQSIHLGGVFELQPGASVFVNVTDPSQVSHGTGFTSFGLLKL
As to the kind of experiment: SPR on Biacore 4000 against immobilised CD40L. Particulars: read-out: geomean IC50 for binding against CD40L. The protocol: (§1) In another experiment, BIO8898 was tested against the immobilised soluble form of CD40L and the soluble form of TNFα by SPR on a Biacore 4000 machine.
A general note: Surface plasmon resonance follows binding to a sensor surface in real time, without labels.

In a further test the target is T2, soluble form of TNFα (Homo sapiens, UniProt P01375).
T2 construct: immobilised soluble form of CD40L and the soluble form of TNFα by SPR
Briefly: SPR on Biacore 4000 against immobilised TNFα. The class given is binding. Particulars: concentration of up to 100 μM. The protocol:
as §1

Entries after “also recorded” stand apart in the source; their conditions may differ.

T2 sequence (P01375 77-233 limits assumed): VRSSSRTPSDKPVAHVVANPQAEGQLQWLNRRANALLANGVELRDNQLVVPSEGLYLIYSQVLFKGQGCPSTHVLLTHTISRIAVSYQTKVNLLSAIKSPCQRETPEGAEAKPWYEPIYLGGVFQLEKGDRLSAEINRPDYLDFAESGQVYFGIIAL

As to `O=C(NCc1cccc(-c2ccccc2)c1)c1cc(-c2cc(C(=O)NC(C(=O)O)C3CCCCC3)nc(C(=O)N3CCCC3CN3CCCC3)c2)cc(C(=O)N2CCCC2CN2CCCC2)n1` (centres unmarked) [BIO8898], at soluble form of CD40L, the IC50 was 17 µM. The “binding to TNFα” value on soluble form of TNFα is recorded as “found not to bind; also recorded: no binding was detected”.

One may read the IC50 as the concentration at which inhibition is half-maximal.
